Columns and labels:
Type in all cases: cell-based
HIV-1 NL 4.3 [1] = assay: HIV-1 replication in activated T cells (PBMC, p24 Ag ELISA); conditions: for anti-HIV activity in activated T cells (in words): SPPs 10 μM, compared with HU 100 μM, HU+ddI or untreated control; for HIV activated cells (% p24 compared to not treated control): activated T cells, 7 days, SPPs and Imatinib 10 μM, HU 100 μM, ddI 2 μM; for Antiviral activity in activated cells: class symbol, Table 6
Description: The experimental setup described below allows us to detect direct antiviral activity of a compound.
Human PBMC, obtained from healthy, normal donors, were stimulated for two days with PHA 5 μg/ml. Then cells were infected with HIV-1 NL 4.3, IL-2 was added (20 U/ml), cells were plated (10^5 cells per well in 200 μl) and drug treatment started. […] The control was left untreated. After 7 days of incubation at 37° C. supernatants were harvested and HIV-1 p24 Ag was measured by ELISA.

[2] = test system: primary human CD4 T-lymphocytes; assay: Apoptosis in primary CD4 T cells (Annexin V and 7-AAD staining); conditions: SPPs 10 μM; for apoptosis %: total apoptotic events compared to untreated control, day 10, Imatinib 10 μM, HU 100 μM, ddI 2 μM; for apoptotic effect (in words): compared with HU 100 μM, HU+ddI or untreated control
Description: (§1) Unstimulated (quiescent/resting, day 0 to 5) primary human CD4 T-lymphocytes were obtained by magnetic bead separation from healthy, normal donors. After five days in culture, cells were activated with PHA (5 μg/ml) to induce hyperproliferation then, at day 7, IL-2 (20 U/ml) was added (stimulated, day 6 to 10). All available compounds were tested at a concentration of 10 μM. […] At day 10, cells were harvested. Proliferation of T cells, cultured as described above, was studied by staining the cells with carboxyfluorescein diacetate-succinimidyl ester (CFSE) at day 0 (immediately after infection). For data analysis, the mitotic index (M) was used, calculating the sum of mitotic events at each proliferation cycle. To extract a relative number, M was normalized to the total number of cells acquired using the equation M=Σ[(Xn(T)−Xn(T)/2^n)], that gives the number of mitotic events from the experimentally obtained values of the proportion of T cells under each division peak n (Xn) and the total T cells (T). To study the effect of the compounds on apoptosis T cells were cultured as described above and at day 10 cells were stained with Annexin V and 7-AAD, in order to determine the percentage of total apoptotic events.
We determined the capacity of the compounds to affect the percentages of apoptotic events after 10 days of treatment in primary CD4 T cells.

[3] = test system: primary human CD4 T-lymphocytes; assay: Cell hyperproliferation in primary T cells (CFSE staining, mitotic index); conditions: for mitotic index %: % of not treated control (100%), day 10, HU 100 μM; for mitotic index % / anti-proliferative activity (in words): SPPs 10 μM, Imatinib 10 μM; for anti-proliferative activity (in words): compared with HU 100 μM, HU+ddI or untreated control; for Anti-proliferative capacity: class symbol, Table 6
Description: We built up an experimental model using primary T cells to study the activity of the compounds on induced hyperproliferation of cells, which is a characteristic of both chronic viral diseases and cancer including HIV and leukemia.
as §1

HIV-1 NL 4.3 [4] = assay: HIV-1 replication in quiescent CD4 T cells (p24 Ag ELISA); conditions: for HIV quiescent cells (percentage p24 compared to the untreated control): quiescent CD4 T cells, day 10, HU 100 μM, HU 100 μM+ddI 2 μM; for HIV quiescent cells (percentage p24 compared to the untreated control) / anti-HIV activity in quiescent cells (in words): SPPs 10 μM; for anti-HIV activity in quiescent cells (in words): compared with HU 100 μM, HU+ddI or untreated control; for Antiviral activity in quiescent cells: class symbol, Table 6
Description: Unstimulated (quiescent/resting, day 0 to 5) human CD4 T-lymphocytes, obtained by magnetic bead separation from healthy, normal donors, were infected with HIV-1 NL 4.3. After five days in culture, cells were stimulated with PHA (5 μg/ml) to induce proliferation, and then, at day 7, IL-2 (20 U/ml) was added (stimulated, day 6 to 10). All available compounds were tested at a concentration of 10 μM. HU 100 μM and HU 100 μM+ddI 2 μM were also employed as comparators and the negative control was left untreated. At day 10, cells and supernatants were harvested and HIV-1 p24 Ag was measured by ELISA. HIV replication was expressed as percentage p24 compared to the untreated control.

Row | SMILES | anti-HIV activity in activated T cells (in words) (HIV-1 NL 4.3 [1]) | HIV activated cells (% p24 compared to not treated control) (HIV-1 NL 4.3 [1]) | apoptosis % [2] | mitotic index % [3] | anti-proliferative activity (in words) [3] | HIV quiescent cells (percentage p24 compared to the untreated control) (HIV-1 NL 4.3 [4]) | Antiviral activity in activated cells (HIV-1 NL 4.3 [1]) | apoptotic effect (in words) [2] | Anti-proliferative capacity [3] | anti-HIV activity in quiescent cells (in words) (HIV-1 NL 4.3 [4]) | Antiviral activity in quiescent cells (HIV-1 NL 4.3 [4]) | inhibition at 10 µM ([3]; Homo sapiens, T-lymphocyte, read-out: decrease/inhibition of cell proliferation compared to not treated control)
1 | CCCNc1nc(SCCN2CCOCC2)nc2c1cnn2CC(Cl)c1ccccc1 (centres unmarked) [VS1-025] | poor activity | 74.2 ± 31.7% | 139.3 ± 20.8% | 61.6 ± 12.7% | poor activity | 23.6 ± 14.5% |  |  |  |  |  | 
2 | CCSc1nc(Nc2cccc(Cl)c2)c2cnn(CC(Cl)c3ccccc3)c2n1 (centres unmarked) [VS1-027] | good anti-HIV activity | 12.0 ± 9.5% | 90.1 ± 33.8% | 2.4 ± 1.5% | good anti-proliferative capacity (superior to 100 μM HU) | 2.7 ± 1.6% | +++ (excellent (+++, greater than 70% activity)) | no more apoptotic than HU | +++ (excellent (+++, greater than 70% activity)) | good anti-HIV activity | +++ (excellent (+++, greater than 70% activity)) | 
3 | CCCCNc1ncnc2c1cnn2C=Cc1ccccc1 [VS1-021] | poor activity | 97.2 ± 30.3% | 108.0 ± 21.7% | 86.2 ± 13.7% | poor activity | 115.4 ± 40.4% |  |  |  |  |  | 
4 | CSc1nc(NCc2ccc(Cl)cc2)c2cnn(CC(Cl)c3ccccc3)c2n1 (centres unmarked) [VS1-035] |  | 49.5 ± 8.1% | 161.0 ± 13.2% | 33.8 ± 11.0% | good anti-proliferative activity, similar to HU | 24.0 ± 20.0% |  | proapoptotic activity |  |  |  | 
5 | BrC(Cn1ncc2c(NC3CCCCC3)ncnc21)c1ccccc1 (centres unmarked) [VS1-007] | no effect on HIV replication | 70.6 ± 24.3% |  | 87.0% | poor performance | 75.7 ± 18.8% |  |  |  |  |  | 
6 | CCCNc1nc(N(C)C)nc2c1cnn2CC(Cl)c1ccccc1 (centres unmarked) [VS1-023] |  | 36.6 ± 15.1% | 116.0 ± 14.7% | 33.2 ± 6.5% |  | 8.7 ± 5.6% |  | not proapoptotic |  |  |  | 
7 | CCSc1nc(NCCc2ccccc2)c2cnn(CC(Cl)c3ccccc3)c2n1 (centres unmarked) [VS1-026] |  | 19.6 ± 12.6% | 135.3 ± 15.7% | 24.9 ± 16.6% | equal to or a little less anti-proliferative than HU | 29.3 ± 6.9% | +++ (excellent (+++, greater than 70% activity)) | not proapoptotic | +++ (excellent (+++, greater than 70% activity)) | slightly less potent against HIV | ++ (good (++, 50 to 70% activity)) | 
8 | C(=Cn1ncc2c(N3CCOCC3)ncnc21)c1ccccc1 [VS1-009] | very little activity | 44.8 ± 14.9% | 114.2 ± 21.3% | 88.4 ± 19.8% | very little activity | 71.8 ± 42.9% |  |  |  |  |  | 
9 | CSc1nc(NCc2ccccc2Cl)c2cnn(CC(Cl)c3ccccc3)c2n1 (centres unmarked) [VS1-036] | effective against HIV | 22.1 ± 5.7% | 139.3 ± 41.6% | 12.0 ± 6.4% | greater or equal to that of 100 μM HU | 14.5 ± 4.0% | +++ (excellent (+++, greater than 70% activity)) | did not induce apoptosis | +++ (excellent (+++, greater than 70% activity)) | effective against HIV | +++ (excellent (+++, greater than 70% activity)) | 
10 | CSc1nc(Nc2cccc(Cl)c2)c2cnn(C=Cc3ccccc3)c2n1 [VS1-016] | better anti-HIV activity than HU | 21.0 ± 6.3% | 88.0 ± 12.7% | 71.2 ± 5.8% |  | 23.6 ± 22.1% |  |  |  |  |  | 
11 | CSc1nc(NCCc2cccc(Cl)c2)c2cnn(CC(Cl)c3ccccc3)c2n1 (centres unmarked) [VS1-028] | good anti-HIV activity | 25.7 ± 19.8% | 108.6 ± 30.8% | 15.2 ± 15.7% | good anti-proliferative capacity (superior to 100 μM HU) | 4.4 ± 2.9% | +++ (excellent (+++, greater than 70% activity)) | no more apoptotic than HU | +++ (excellent (+++, greater than 70% activity)) | good anti-HIV activity | +++ (excellent (+++, greater than 70% activity)) | 
12 | C(=Cn1ncc2c(N3CCCCCC3)ncnc21)c1ccccc1 [VS1-001] | very effective inhibitor of HIV replication | 12.5 ± 2.3% | 80.3 ± 19.2% | 52.0 ± 2.0% | less effective than HU | 19.6 ± 20.3% |  | did not induce apoptosis |  | very effective inhibitor of HIV replication |  | 
13 | CSc1nc(N2CCCCCC2)c2cnn(CC(Cl)c3ccccc3)c2n1 (centres unmarked) [VS1-034] |  | 65.0 ± 12.0% | 115.1 ± 34.5% | 25.9 ± 12.9% | comparable or even greater than HU | 22.2 ± 7.0% |  |  |  |  |  | 
14 | Cc1ccc(NC(=O)c2ccc(CN3CCN(C)CC3)cc2)cc1Nc1nccc(-c2cccnc2)n1 [Imatinib, reference compound] | comparable antiviral capacity |  |  |  |  |  |  | no significant increases |  |  |  | 62%
15 | CCCCNc1nc(SC)nc2c1cnn2CC(Cl)c1ccccc1 (centres unmarked) [VS1-024] |  | 10.1 ± 7.4% | 126.7 ± 23.9% | 45.5 ± 10.9% | equal to or a little less anti-proliferative than HU | 24.3 ± 9.4% | +++ (excellent (+++, greater than 70% activity)) | not proapoptotic | ++ (good (++, 50 to 70% activity)) | slightly less potent against HIV | +++ (excellent (+++, greater than 70% activity)) | 
16 | CCCCNc1ncnc2c1cnn2CC(Br)c1ccccc1 (centres unmarked) [VS1-006] | not effective | 100.5 ± 26.4% |  | 54.0% | not effective | 17.8 ± 2.5% |  |  |  |  |  | 

Source: patent US20120022048A1, “Anti-proliferative substituted pyrazolo[3,4-d]pyrimidines derivatives (SPP) to inhibit immune activation, virus replication and tumor growth” (priority 2010, published 2012)
